# Reference: patent US5028411A, “Pharmaceutical compositions” (priority 1984, dated 1991)
# Like-named read-outs stand apart in the source and are kept apart here.
# Experiments:
# [1] = In vivo cat, duodenal: 59Fe blood level and tissue distribution
# Description: (§1) Cats were anaesthetised with chloralase (60 mg/kg) and pentobarbitone sodium (60 mg/kg) (i.p.), having been kept free of food for 18 hours. In each animal the trachea was cannulated to maintain a clear airway and to allow positive pressure artificial respiration if necessary. The left femoral vien was cannulated for the intravenous administration of drugs and physiological saline solution. Arterial blood pressure was monitored by a Washington pressure transducer through a cannula inserted into the femoral artery of the right hind leg. Arterial blood samples were taken at appropriate intervals from a short cannula inserted into an external carotid artery. Body temperature was monitored with a rectal thermometer. Each animal was given heparin (1000 iu/kg) as anticoagulant and additional small amounts of pentabarbitone sodium if needed to maintain a satisfactory level of anaesthesia.
# In those animals where the iron compounds were to be administered into the duodenum, a mid-line incision was made in the abdomen to reveal the intestines. A cannula was then inserted through a small cut such that its tip rested approximately 5 cm below the opening of the bile duct. The cannula was then sutured in place and the abdominal wall closed with stitches.
# The distribution of ^59 Fe in the tissues of the animal after the same duodenal experiment to which FIG. 7 relates were investigated and the typical results are shown in Table 7. The amount of ^59 Fe administered in this experiment was 10 μCi or 5.327×10^6 cpm into a 2.9 kg cat. It will be seen that the distribution of the ^59 Fe after 4 hours was similar to that after intravenous infusion, with low levels in the kidney and urine and high levels in both the spleen and bone marrow.
# The distribution of ^59 Fe in the tissues of the animal after the same duodenal experiment were investigated and the typical results are shown in Table 8. The amount of ^59 Fe administered in this experiment was 10 μCi or 2.65×10^6 cpm into a 2.9 kg cat. It will be seen that, although some ^59 Fe entered the tissues, rather low levels were detected in the spleen and bone marrow (sternum) whereas a large proportion of the dose was located in the urine.
# [2] = assay type: in vivo, cat
# Description: as §1
# The apparent volume of distribution of the compound was calculated by extrapolation of the log-linear blood concentration curve to zero.
# The amount of ^59 Fe administered in this experiment was 4 μCi of 2.2×10^6 cpm.
# [3] = In vivo test of action of iron compounds in the rat (59Fe into duodenum)
# Description: Groups of rats (300-350 g) were anaesthetised with nembutal (0.25 ml) and then with ether. A mid-line incision was made and the ^59 Fe labelled sample (100 μg Fe, 10 μCi) was passed into the lumen of the duodenum via a small incision. The abdominal well was then closed with a suture. The animals were sacrificed 1, 2, 4 and 6 hours after the administration of the compound and the various organs were monitored for their ^59 Fe content. […] In the case of the data for blood and sternum (bone marrow) the counts given are cpm/ml and cpm/g respectively, whilst in all other cases they are the total cpm counts.
# rat jejunal sac [4] = experiment: In vitro permeation of rat jejunal sac by iron complexes
# Description: Rats (male Sprague Dawley, 60 g) were killed and the jejunum removed, everted and cut into three segments (4 cm length). The segments were tied at both ends, filled with Krebs Ringer buffer (0.2 ml) and incubated in Krebs Ringer buffer containing the appropriate ^59 Fe compound at 37° C. for periods up to 90 minutes. The contents of the sac were counted for ^59 Fe and measured spectrophotometrically.
# [5] = Description: An indication of the properties of a compound in this respect is provided by the value of the partition coefficient (Kpart) obtained on partition between n-octanol and Tris hydrochloride (20 mM, pH 7.4; Tris representing 2-amino-2-hydroxymethylpropane 1,3-diol) at 20° C. and expressed as the ratio (concentration of compound in organic phase)/(concentration of compound in aqueous phase).
# Acid washed glassware is used throughout and, following mixing for 1 minute, the aqueous/n-octanol mixture is centrifuged at 1000 g for 30 seconds. The two resulting phases are separated for a concentration determination by spectrophotometry on each.
# [6] = Metabolism of free hydroxypyrone
# [7] = remark: listed apart in the source
# Excerpt: (§2) In order to solubilise iron(III) hydroxide, log Ksol must be greater than 0.
# [8] = Affinity of maltol for copper (II), zinc (II), calcium and magnesium; assay type: physicochemical; details: compared with iron
# Excerpt: as §2
# erythrocyte ghosts = assay type: binding, human
# Excerpt: Experiments to determine the percentage of ^59 Fe associated with erthrocyte ghosts after lysis confirm this hypothesis. In one experiment, lysis was initiated by a small volume of 10% v/v Triton X100 and in a second experiment by a 10 fold excess of water. […] Such binding is of course undesirable as the complex is likely to remain tightly bound to the membrane by electrostatic interactions and not be transmitted across it.
# haemoglobin = experiment: Binding to haemoglobin by gel permeation elution profile of 59Fe; details: 1 mM complex, NaCl 130 mM, pH 7.4, PD-10 column
# human erythrocytes = assay type: in vitro ADME; details: not told
# Description: Following this period of incubation an aliquot of the erythrocyte/medium mixture was placed above a layer of silicone oil (.rho.=1.06) and the erythrocytes separated by centrifugation through the oil. The ^59 Fe levels associated with the erythrocytes and the incubation medium were then counted and presented as a distribution ratio (concentration in erythrocytes/concentration in medium).
# [9] = system: bovine serum albumen (BSA); experiment: Binding to bovine serum albumen (BSA); details: column procedure as for haemoglobin
# apotransferrin = experiment: Exchange of iron(III) between complex and apotransferrin
# Excerpt: as §2
# rat jejunal sac [10] = assay type: in vitro ADME, rat (male Sprague Dawley)
# Excerpt: The procedure described above was used to compare the uptake of iron from buffer containing differing molar proportions of maltol:iron.
# [11] = iron EDTA duodenal, 2.65×10^6 cpm
# [12] = n-octanol/tris hcl, 100 µM, pH 7.4
# [13] = relative to ferric chloride as 1, 37° C.
compound,measurement,setting,value
O=C([O-])CN(CCN(CC(=O)[O-])CC(=O)[O-])CC(=O)[O-].[Fe+3] [Iron EDTA],plasma levels of radioactivity,[1]; duodenal,hardly exceeded the background level
same,"Net 59Fe content, Heart",[1]; [11],188 cpm/g
same,"Net 59Fe content, Kidney",[1]; [11],"1,762 cpm/g"
same,"Net 59Fe content, Liver",[1]; [11],499 cpm/g
same,"Net 59Fe content, Skeletal muscle",[1]; [11],117 cpm/g
same,"Net 59Fe content, Spleen",[1]; [11],200 cpm/g
same,"Net 59Fe content, Sternum (bone marrow)",[1]; [11],917 cpm/g
same,"Net 59Fe content, Urine",[1]; [11],"36,306 cpm/g"
same,"Net total 59Fe content, Heart",[1]; [11],"2,878 cpm"
same,"Net total 59Fe content, Kidney",[1]; [11],"19,913 cpm"
same,"Net total 59Fe content, Liver",[1]; [11],"29,574 cpm"
same,"Net total 59Fe content, Spleen",[1]; [11],880 cpm
same,"Net total 59Fe content, Urine",[1]; [11],"544,596 cpm"
same,dose located in the urine,"[2]; cat, in vivo, iv",over 50%
same,rate constant of the elimination from the blood of the linear phase,"[2]; cat, in vivo, iv",0.023 min⁻¹
same,"Net 59Fe content, Heart","[2]; in vivo, iv",209 cpm/g
same,"Net 59Fe content, Kidney","[2]; in vivo, iv","1,134 cpm/g"
same,"Net 59Fe content, Liver","[2]; in vivo, iv",261 cpm/g
same,"Net 59Fe content, Spleen","[2]; in vivo, iv",162 cpm/g
same,"Net 59Fe content, Sternum (bone marrow)","[2]; in vivo, iv","1,164 cpm/g"
same,"Net 59Fe content, Urine","[2]; in vivo, iv","62,156 cpm/g"
same,"Net total 59Fe content, Heart","[2]; in vivo, iv","3,248 cpm"
same,"Net total 59Fe content, Kidney","[2]; in vivo, iv","21,770 cpm"
same,"Net total 59Fe content, Liver","[2]; in vivo, iv","19,600 cpm"
same,"Net total 59Fe content, Spleen","[2]; in vivo, iv","1,814 cpm"
same,"Net total 59Fe content, Urine","[2]; in vivo, iv","1,180,900 cpm"
same,kinetics of loss of radioactivity from blood,"[2]; in vivo, iv",at least a two-component process
same,"Net 59Fe content, Skeletal muscle","[2]; iron EDTA i.v., adjusted to 2.2×10^6 cpm",95 cpm/g
same,59Fe levels in the intestine wall and blood,[3]; 100 μg Fe,extremely low
same,iron transfer to / 59Fe levels in bone marrow and spleen,"[3]; 100 μg Fe, compared with maltol complex",reduced rates
same,59Fe in gut washings,"[3]; 100 μg Fe, non-absorbed iron",remain high for 4 hours
O=C([O-])CC(O)(CC(=O)[O-])C(=O)[O-].[Fe+3] [Fe^III citrate],"Relative iron uptake, 15 minutes",rat jejunal sac [4],2.0
same,"Relative iron uptake, 60 minutes",rat jejunal sac [4],1.8
iron(III) ascorbate [Fe^III ascorbate],partition coefficient Kpart (concentration in n-octanol/concentration in aqueous phase),[5]; [12],0.0015
same,"Relative iron uptake, 15 minutes",rat jejunal sac [4],0.4
same,"Relative iron uptake, 60 minutes",rat jejunal sac [4],0.8
"O=S(=O)([O-])[O-].[Fe+2] [Fe^II sulphate, iron(II) sulphate]","Relative iron uptake, 15 minutes",rat jejunal sac [4],2.4
same,"Relative iron uptake, 60 minutes",rat jejunal sac [4],1.4
O=C([O-])/C=C/C(=O)[O-].[Fe+2] [Fe^II fumarate],"Relative iron uptake, 15 minutes",rat jejunal sac [4],4.0
same,"Relative iron uptake, 60 minutes",rat jejunal sac [4],1.8
iron(II) gluconate [Fe^II gluconate],"Relative iron uptake, 15 minutes",rat jejunal sac [4],1.6
same,"Relative iron uptake, 60 minutes",rat jejunal sac [4],0.8
"[Cl][Fe]([Cl])[Cl] [FeCl3, ferric chloride]","Relative iron uptake, 15 minutes",rat jejunal sac [4]; [13],1
same,"Relative iron uptake, 60 minutes",rat jejunal sac [4]; [13],1
O=C([O-])CCC(=O)[O-].[Fe+2] [Fe^II succinate],"Relative iron uptake, 15 minutes",rat jejunal sac [4],2.0
same,"Relative iron uptake, 60 minutes",rat jejunal sac [4],1.0
"Cc1occc(=O)c1O [maltol, 3-hydroxy-2-methyl-4-pyrone]",partition coefficient Kpart (concentration in n-octanol/concentration in aqueous phase),"[5]; n-octanol/Tris hydrochloride 20 mM, pH 7.4, 10^-4 M, spectrophotometry",0.66
same,metabolism,[6],rapidly metabolized
same,affinity for iron (log β3),[7],30
same,deposition of iron in the bone marrow over time,[3]; 6 hour period,continuously throughout the 6 hour period at an apparently constant rate
same,"affinity for copper (II), zinc (II), calcium and magnesium",[8],lower affinity
Cc1occc(=O)c1[O-].Cc1occc(=O)c1[O-].Cc1occc(=O)c1[O-].[Fe+3] [Iron maltol],"Iron associated with ghosts, Hypotonic lysis",erythrocyte ghosts,< 5%
same,"Iron associated with ghosts, Triton lysis",erythrocyte ghosts,< 1%
same,partition coefficient Kpart (concentration in n-octanol/concentration in aqueous phase),[5]; [12],0.50
same,binding to haemoglobin,haemoglobin,no evidence is found for binding
same,time for erythrocyte uptake to reach equilibrium,human erythrocytes,about 15 minutes
same,59Fe directed to the bone marrow,"[2]; cat, in vivo, iv",approximately 90%
same,"dose located in combined tissue of heart, liver and spleen","[2]; cat, in vivo, iv",approximately 10%
same,dose located in the urine,"[2]; cat, in vivo, iv",less than 0.2%
same,"Net 59Fe content, Heart","[2]; in vivo, iv",490 cpm/g
same,"Net 59Fe content, Kidney","[2]; in vivo, iv",546 cpm/g
same,"Net 59Fe content, Liver","[2]; in vivo, iv",510 cpm/g
same,"Net 59Fe content, Skeletal muscle","[2]; in vivo, iv",0 cpm/g
same,"Net 59Fe content, Spleen","[2]; in vivo, iv","14,890 cpm/g"
same,"Net 59Fe content, Sternum (bone marrow)","[2]; in vivo, iv","3,200 cpm/g"
same,"Net 59Fe content, Urine","[2]; in vivo, iv",152 cpm/g
same,"Net total 59Fe content, Heart","[2]; in vivo, iv","7,056 cpm"
same,"Net total 59Fe content, Kidney","[2]; in vivo, iv","6,661 cpm"
same,"Net total 59Fe content, Liver","[2]; in vivo, iv","53,550 cpm"
same,"Net total 59Fe content, Skeletal muscle","[2]; in vivo, iv",0 cpm
same,"Net total 59Fe content, Spleen","[2]; in vivo, iv","125,076 cpm"
same,"Net total 59Fe content, Urine","[2]; in vivo, iv","< 3,000 cpm"
same,apparent volume of distribution,"[2]; in vivo, iv",a value between that of the total extracellular space of the animal and the blood volume
same,"Relative iron uptake, 15 minutes",rat jejunal sac [4],40
same,"Relative iron uptake, 60 minutes",rat jejunal sac [4],5.8
same,concentration range over which uptake increased linearly,rat jejunal sac [4],500 to 10000 µM
same,period over which uptake was linear,rat jejunal sac [4],90 min
same,thermodynamic stability constant,[7],30
same,binding to bovine serum albumen,[9],little ability to bind to BSA
same,lability of the complex,apotransferrin,extremely labile
same,Iron uptake into serosal contents of the sac,rat jejunal sac [10],30.0 n mole
same,proportion of total iron present as 3:1 complex,rat jejunal sac [10]; at 2:1 ratio of maltol:iron,13%
